Seven compounds from US8853228B2, “Heterocyclic analogs of propargyl-linked inhibitors of dihydrofolate reductase” (University of Connecticut, priority 2011, dated 2014) can be followed below.

Values after ≈ are worked out from the molar mass of the structure shown. Where two headings read alike, the source gives them in different places.

One assay concerns the target S. pyogenes DHFR (Streptococcus pyogenes, UniProt Q9A091). As to the kind of experiment: S. pyogenes DHFR enzyme inhibition assay. The assay is classed as biochemical. Particulars: for Selectivity (h/Sp): IC50 (human)/IC50 (pathogen); for IC50: average of at least three measurements. As for the experimental part:
(§1) Enzyme inhibition assays were performed by monitoring the rate of NADPH oxidation by the DHFR enzyme at an absorbance of 340 nm. Assays were performed in the presence of saturating concentrations of NADPH and initiated with dihydrofolate. All assays were completed at 25° C. in a buffer containing 20 mM TES pH 7.0, 50 mM KCl, 10 mM 2-mercaptoethanol, 0.5 mM EDTA and 1 mg/mL BSA. Inhibition was measured at least three times with inhibitor concentrations near the IC50 value and the average IC50 value is reported with a standard deviation.

The test system of the next assay is Streptococcus pyogenes. As to the kind of experiment: Antibacterial MIC, broth microdilution with Alamar Blue. The assay is classed as cell-based. Particulars: for Selectivity S. pyogenes: IC50 (MCF10)/MIC (pathogen); for MIC S. pyogenes: Table 6. As for the experimental part: (§2) For susceptibility testing, 10 μL of glycerol stock was suspended in a 10 mL shake flask culture of chemically defined Isosensitest broth (Oxoid) supplemented with 2% w/v glucose. A sample of the shake flask culture was diluted to 1×10^6 cells/mL in media and added to 96-well test plates (100 μL per well) containing test compounds dispensed in DMSO (2 μL). After an incubation period (30° C.) determined from the strain specific doubling time, a 0.03% w/v aqueous solution of resazurin (10 μL) was added and the plates were allowed to incubate; each well was then scored for dye reduction.
A general note: In broth dilution the organism is exposed to a series of concentrations in liquid medium.

Another assay addresses hDHFR (Homo sapiens (Human), UniProt P00374). As to the kind of experiment: hDHFR enzyme inhibition assay. In kind it is biochemical. As for the experimental part:
hDHFR: The gene for hDHFR was amplified using PCR from cDNA obtained from ATCC. The gene was inserted in a pET41 vector with a C-terminal histidine tag for affinity chromatography. The resulting construct was verified by sequencing. The hDHFR protein was expressed in E. coli and purified using a nickel affinity column.
(§3) Enzyme and inhibitor were allowed to incubate for 5 min before adding dihydrofolate to initiate the reaction. Enzyme assays were performed at least four times. IC50 values and their standard deviations were calculated in the presence of varying concentrations of inhibitor near the IC50 concentration.
as §1

A further assay has as its system MCF-10 cells. As to the kind of experiment: Mammalian cell toxicity, MCF-10. In kind it is cell-based, human. Particulars: cytotoxicity. As for the experimental part: (§4) Adherent cell lines were maintained in Eagle's Minimal Essential Media (Sigma-Aldrich, St. Louis, Mo., USA) with 2 mM glutamine and Earle's Balanced Salt Solution (HyClone, Logan, Utah, USA) adjusted to contain 1.5 g/L sodium bicarbonate, 0.1 mM non-essential amino acids, 1 mM sodium pyruvate and 10% fetal calf serum. Fetal calf serum used in these assays was lot matched throughout. […] Toxicity assays were conducted between passages 10-20. Target compound toxicity was measured by incubating the test compound with the cells for 4 h, washing the cells and finally treating the cells with Alamar Blue. After 12-24 h, the fluorescence of the reduced dye was measured. Fluorescence intensity as a function of test compound concentration was fit to the Fermi equation, using non-linear least squares regression analysis, to estimate IC50 values.

A further assay concerns S. aureus 13709 (MRSA). As to the kind of experiment: Antibacterial MIC, broth microdilution with Alamar Blue. The assay is classed as cell-based, Staphylococcus aureus. Particulars: for Selectivity MRSA: IC50 (MCF10)/MIC (pathogen); for MIC MRSA: Table 6. As for the experimental part: as §2
Another assay addresses S. aureus DHFR (Staphylococcus aureus, UniProt P0A017). In kind it is biochemical. Particulars: for Selectivity (h/Sa): IC50 (human)/IC50 (pathogen); for IC50: average of at least three measurements. As for the experimental part: as §1
For the next assay, the system named is HepG2 cells. As to the kind of experiment: Mammalian cell toxicity, HepG2. The assay is classed as cell-based. As to conditions: cytotoxicity. As for the experimental part: as §4
A further assay has as its target CgDHFR (Candida glabrata (strain ATCC 2001 / BCRC 20586 / JCM 3761 / NBRC 0622 / NRRL Y-65 / CBS 138) (Yeast) (Nakaseomyces glabratus), UniProt Q6FPH0). As to the kind of experiment: biochemical.
Excerpt: CgDHFR: The gene coding CgDHFR was amplified by PCR from C. glabrata genomic DNA obtained from ATCC. The gene was inserted in a pET41 vector that includes a C-terminal histidine tag for nickel affinity chromatography. E. coli cells were transformed and the resulting plasmid was verified by sequencing. The protein was expressed in E. coli BL21(DE3) cells with isopropyl β-D-thiogalactoside induction. Following growth, the cells were lysed with BugBuster (Novagen) and centrifuged; the supernatant was loaded on a Ni-NTA column. The column was washed with 20 mM Tris (pH 8.0)/0.4 M NaCl and the protein was eluted using a gradient of 20 mM Tris (pH 8.0), 0.3 M NaCl, 20% glycerol, 0.1 mM EDTA, 2 mM DTT, 250 mM imidazole. Fractions containing CgDHFR were identified by SDS-PAGE, combined and desalted using a PD-10 column with a buffer containing 20 mM Tris pH 8.0, 20% glycerol, 0.1 mM EDTA and 2 mM DTT. The protein was concentrated to 13 mg/mL.
as §3

The next assay concerns C. glabrata. As to the kind of experiment: Antifungal assay (MIC, Alamar Blue). In kind it is cell-based, Candida glabrata. As to conditions: for MIC (Cg): C. glabrata, YM media. As for the experimental part:
Antifungal assays were performed using C. glabrata as a suspension in 50% glycerol at −78° C. For susceptibility testing, a streak of stock culture was made on SDA agar and grown at 30° C. for 48 h. One pure colony of the test organism was recovered from the plate, suspended in appropriate media and grown in a 5 mL shake flask culture. A sample of the shake flask culture was diluted to 1×10^5 cells/mL in media and added to 96-well test plates (100 μL per well) containing test compounds dispensed in DMSO (1 μL). Amphotericin and ketoconazole were used as controls. After an incubation period determined from the strain specific doubling time, Alamar Blue (10 μL) was added, allowed to incubate; each well was scored for dye reduction.
Several representative compounds were also evaluated in thymidine-depleted media. It has been shown that high levels of thymidine interfere with accurate susceptibility testing of antifolates. To compensate for this, antifolates are frequently evaluated in a controlled minimal media with a low thymidine concentration. […] In addition, the compounds were also evaluated for mammalian cell toxicity using MCF-10 and HepG2 cell lines. Cellular selectivity is reported as the IC50 value for the MCF-10 human cell line divided by the MIC value (μg/mL) (Table 8).
Background: Alamar Blue is a resazurin reagent that responds to reducing activity.

The mark [1] stands for this setting: Table 5, average of at least three measurements, read-out: IC50 human.
The mark [2] stands for this setting: Table 7, read-out: IC50 (CgDHFR).

Chain of CgDHFR (Q6FPH0 1-217): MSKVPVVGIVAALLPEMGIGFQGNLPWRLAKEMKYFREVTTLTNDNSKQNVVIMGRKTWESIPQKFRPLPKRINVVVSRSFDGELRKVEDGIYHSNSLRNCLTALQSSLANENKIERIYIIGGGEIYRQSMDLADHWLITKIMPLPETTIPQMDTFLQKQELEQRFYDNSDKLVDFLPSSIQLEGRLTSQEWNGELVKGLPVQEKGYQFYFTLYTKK
Chain of hDHFR (P00374 whole entry): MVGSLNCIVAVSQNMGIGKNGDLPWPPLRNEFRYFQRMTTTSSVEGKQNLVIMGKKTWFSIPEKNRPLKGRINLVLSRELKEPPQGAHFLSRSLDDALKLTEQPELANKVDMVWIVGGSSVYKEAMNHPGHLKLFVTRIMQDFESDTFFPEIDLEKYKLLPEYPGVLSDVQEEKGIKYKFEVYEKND
Chain of S. pyogenes DHFR (Q9A091 1-165): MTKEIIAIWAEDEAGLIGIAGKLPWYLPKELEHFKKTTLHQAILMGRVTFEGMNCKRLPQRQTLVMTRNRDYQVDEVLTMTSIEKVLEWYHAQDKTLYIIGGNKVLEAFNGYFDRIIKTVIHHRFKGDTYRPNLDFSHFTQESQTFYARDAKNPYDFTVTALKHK

As to `CCc1nc(N)nc(N)c1C#CCc1cc(-c2ccccc2)ccc1OC` [Compound 142], on S. pyogenes DHFR, the “Selectivity (h/Sp)” value is on record as 51 and the half-maximal inhibitory concentration (IC50) came to 0.0059 ± 0.0002 µM. In the assay with Streptococcus pyogenes, the “Selectivity S. pyogenes” value was 11,167 and the “MIC S. pyogenes” value is 0.006 µg/mL (≈ 0.0167 µM). Further, the IC50 at hDHFR (setting [1]) came out at 0.3 ± 0.01 µM. This compound also displayed an IC50 in the assay with MCF-10 cells (Table 6) of 67 µM. In the assay on S. aureus 13709 (MRSA), the “Selectivity MRSA” value is 372 and the “MIC MRSA” value came to 0.18 µg/mL (≈ 0.502 µM). On S. aureus DHFR, the “Selectivity (h/Sa)” value came to 125 and 0.0024 ± 0.0002 µM corresponded to half-maximal inhibition (IC50). Also, the “improvement in potency against S. aureus DHFR” value on S. aureus DHFR (relative to compound 140) is recorded as 18 fold.
In the case of `CCc1nc(N)nc(N)c1C#CCc1cc(-c2ccncc2)ccc1OC` [Compound 149], the “Selectivity (h/Sp)” value at S. pyogenes DHFR was 17. Besides, the IC50 on S. pyogenes DHFR was found to be 0.019 ± 0.0013 µM; at hDHFR (setting [1]), 0.33 ± 0.012 µM; in the assay on MCF-10 cells (Table 6), 217 µM; in the assay with HepG2 cells (Table 6), 199 µM; on S. aureus DHFR, 0.021 ± 0.001 µM. For the same compound, in the assay on Streptococcus pyogenes, the “Selectivity S. pyogenes” value is recorded as 3,867. Moreover, in the assay with Streptococcus pyogenes, the “MIC S. pyogenes” value turned out to be 0.09 µg/mL (≈ 0.25 µM). For the same compound, the “Selectivity MRSA” value with S. aureus 13709 (MRSA) is given as >20,000. The “MIC MRSA” value against S. aureus 13709 (MRSA) was 0.01 µg/mL (≈ 0.0278 µM). Besides, the “Selectivity (h/Sa)” value at S. aureus DHFR was found to be 16.
In the case of `COc1cc(-c2ccc(C)cc2)cc([C@@H](C)C#Cc2c(C)nc(N)nc2N)c1` [Compound 141], the IC50 at S. pyogenes DHFR was 0.35 ± 0.044 µM; on CgDHFR (setting [2]), 0.0006 ± 0.0003 µM; on CgDHFR (Table 11, read-out: CgDHFR IC50), 0.0006 µM; in the assay on MCF-10 cells (Table 6), 55 µM; against S. aureus DHFR it was 0.41 ± 0.036 µM. In addition, the “IC50 against CgDHFR” value at CgDHFR was “subnanomolar”. Further, the “MIC S. pyogenes” value in the assay with Streptococcus pyogenes was determined as 0.024 µg/mL (≈ 0.0644 µM). Moreover, the “MIC (Cg)” value against C. glabrata was 1.5 µg/mL (≈ 4.03 µM). Besides, in the assay on C. glabrata (Table 11, C. glabrata), the “Antifungal activity MIC” value was 1.5 µg/mL. Moreover, the “MIC MRSA” value in the assay on S. aureus 13709 (MRSA) was found to be 0.71 µg/mL (≈ 1.91 µM).
The compound `COc1cc(C(C)C#Cc2c(C)nc(N)nc2N)cc(N2C[C@@H](C)O[C@@H](C)C2)c1` (mixture of isomers) [Compound 156] displayed a Selectivity on CgDHFR (Table 7, hDHFR vs CgDHFR) of 4.9 ± 0.4. Moreover, the IC50 on CgDHFR (setting [2]) was 0.068 ± 0.005 µM; at hDHFR (Table 7, read-out: IC50 (hDHFR)), 0.33 ± 0.006 µM; in the assay with MCF-10 cells (Table 8) it was 314 µM; in the assay with HepG2 cells (Table 8), 193 µM. Further, in the assay on C. glabrata, the “MIC (Cg)” value amounted to 6.3 µg/mL (≈ 15.9 µM). The “Selectivity Index” value in the assay with C. glabrata (IC50 (MCF-10)/MIC (C. glabrata)) stood at 108. Moreover, the “MIC C. glabrata” value in the assay with C. glabrata (IsoSensitest media supplemented with 2% glucose (thymidine-depleted)) was found to be 2.9 µg/mL (≈ 7.33 µM).
Consider `CCc1nc(N)nc(N)c1C#CCc1cc(OC)cc(-c2ccccc2)c1` [Compound 144], for which, at S. pyogenes DHFR, the “Selectivity (h/Sp)” value is 3 and the half-maximal inhibitory concentration (IC50) stood at 0.052 ± 0.0017 µM. Moreover, in the assay on Streptococcus pyogenes, the “Selectivity S. pyogenes” value stood at 603 and the “MIC S. pyogenes” value turned out to be 0.33 µg/mL (≈ 0.921 µM). For the same compound, the half-maximal inhibitory concentration (IC50) at hDHFR (setting [1]) was found to be 0.14 ± 0.001 µM. In the assay with MCF-10 cells (Table 6), the 50% inhibitory concentration (IC50) worked out at 199 µM. Moreover, in the assay on S. aureus 13709 (MRSA), the “Selectivity MRSA” value is 2500 and the “MIC MRSA” value turned out to be 0.08 µg/mL (≈ 0.223 µM). On S. aureus DHFR, the “Selectivity (h/Sa)” value turned out to be 2.4 and the IC50 was found to be 0.059 ± 0.0023 µM.
Turning to `CCc1nc(N)nc(N)c1C#CCc1cccc(-c2ccccc2)c1` [Compound 143], on S. pyogenes DHFR, the “Selectivity (h/Sp)” value is 11 and 0.026 ± 0.0017 µM corresponded to half-maximal inhibition (IC50). Also, in the assay with Streptococcus pyogenes, the “Selectivity S. pyogenes” value is on record as 842 and the “MIC S. pyogenes” value came out at 0.04 µg/mL (≈ 0.122 µM). The IC50 on hDHFR (setting [1]) stood at 0.29 ± 0.036 µM. For the same compound, half-maximal inhibition with MCF-10 cells (Table 6) (IC50) required 32 µM. For the same compound, in the assay on S. aureus 13709 (MRSA), the “Selectivity MRSA” value worked out at 45 and the “MIC MRSA” value is 0.71 µg/mL (≈ 2.16 µM). Also, on S. aureus DHFR, the “Selectivity (h/Sa)” value is on record as 10 and the IC50 is 0.028 ± 0.0017 µM.
With `CCc1nc(N)nc(N)c1C#CCc1cccc(-c2cncnc2)c1` [Compound 155], on S. pyogenes DHFR, the “Selectivity (h/Sp)” value was determined as 7 and the IC50 was found to be 0.023 ± 0.0012 µM. In addition, in the assay on Streptococcus pyogenes, the “Selectivity S. pyogenes” value is reported as 26,316 and the “MIC S. pyogenes” value came out at 0.019 µg/mL (≈ 0.0575 µM). The IC50 on hDHFR (setting [1]) amounted to 0.16 ± 0.013 µM. Besides, the IC50 with MCF-10 cells (Table 6) is over 500 µM. In the assay on S. aureus 13709 (MRSA), the “Selectivity MRSA” value is 3,333 and the “MIC MRSA” value was 0.15 µg/mL (≈ 0.454 µM). For the same compound, on S. aureus DHFR, the “Selectivity (h/Sa)” value was found to be 5 and the IC50 is 0.035 ± 0.0011 µM.

As usually defined, the IC50 is the concentration needed to halve the response being measured.
